Measured values from US20080300317A1 (Chevron U.S.A. Inc., priority 2007, published 2008).
Counter-ions that a name gives are not always drawn. Like-named read-outs stand apart in the source and are kept apart here.

Legend:
[1] = test system: influenza A/PR/8/34 (H1N1); test: microbe, parasite or virus in culture; assay type: cell-based, influenza A virus
[2] = test system: influenza A/WS/33 (H1N1); test: microbe, parasite or virus in culture; assay type: cell-based, influenza A virus
[3] = test system: influenza A/HK/8/68 (H3N2); test: microbe, parasite or virus in culture; assay type: cell-based, influenza A virus
[4] = test system: influenza B/GL/1739/54; test: Anti-viral EC50 experiment, survival of virus-infected Vero cells; assay type: cell-based, influenza B virus
Protocol: The following MDT compounds were tested: MDT-1, MDT-3, MDT-10, MDT-11, MDT-12, MDT-13, MDT-14, MDT-15, MDT-16, MDT-22, MDT-23, MDT-24, MDT-26, MDT-27, MDT-28, MDT-29, MDT-30, MDT-31, MDT-32, MDT-33, MDT-34, MDT-40, MDT-41, MDT-42, MDT-43, MDT-44, MDT-45, MDT-46, MDT-47, MDT-48, MDT-49, MDT-50, MDT-51, MDT-53, MDT-56, MDT-57, MDT-58, MDT-59, MDT-60, MDT-61, MDT-62, MDT-63, MDT-65, MDT-67, MDT-68 and MDT-69. […] Amantadine and rimantadine are both adamantane derivatives.
Compound diluents were dimethyl sulfoxide (DMSO), Molecusol ((2-hydroxypropyl)-β-cyclodextrin; Sigma H107), propylene-glycol (PG) and deionized water. Diluents were used singly or in combination as necessary to dissolve the compounds.
The medium used for the cell lines was 1× Minimal Essential Medium (MEM) (Invitrogen) supplemented with 1% L-glutamine, 1% penicillin-streptomycin, 0.125% bovine serum albumin (BSA), and 1 μg/ml of TPCK-trypsin.
The viruses tested were influenza A/PR/8/34 (H1N1), influenza A/WS/33 (H1N1), influenza A/HK/8/68 (H3N2) and influenza B/GL/1739/54 (no H, N subtyping). Cells used were the Vero line of African green monkey, normal kidney cells. All viruses and cells were obtained from The American Type Culture Collection (Rockville, Md.). Cells were grown in an atmosphere of 4-6% CO2 at 34-38° C. in MEM with 5% fetal bovine serum (FBS), 2 mM glutamine, and 1% penicillin-streptomycin solution to maintain exponential growth.
The Vero cells were plated on Day 0. On Day 1, cells were infected with virus and incubated with various concentrations of test compounds. […] On Day 4 the cells were fixed and stained. […] Cell survival due to exposure to test compound was indicative of anti-viral activity.

[5] = test system: Vero cells; conditions: Table 3, MDT compounds, No Tox. = no cytotoxicity measured
[6] = test system: 3 strains of influenza A virus and one strain of influenza B virus; assay type: cell-based; conditions: Vero cells; screening at 50, 10, 5 and 1 μM; all four influenza strains
[7] = Table 3, Vero cells, H1N1, n at least 2, No effic. = no efficacy measured, read-out: EC50 Virus A/PR/8/34
[8] = Table 3, Vero cells, H1N1, n at least 2, No effic. = no efficacy measured, read-out: EC50 Virus A/WS/33
[9] = Table 3, Vero cells, H3N2, n at least 2, No effic. = no efficacy measured
[10] = Table 3, Vero cells, n at least 2, No effic. = no efficacy measured
[11] = Table 3, Vero cells, H1N1, n at least 2, No effic. = no efficacy measured
[12] = Table 3, Vero cells, H3N2, n at least 2, No effic. = no efficacy measured, read-out: EC50 Virus A/HK/8/68
[13] = Influenza A virus, Table 3, Vero cells, H1N1, n at least 2, No effic. = no efficacy measured

In the case of 2-aminotriamantane [MDT-50], the EC50 [1, 7] is reported as 20 nM, the EC50 [2, 8] is reported as 370 nM and the “EC50 Virus A/HK/8/68” value [3, 9] is reported as “No Effic”. For the same molecule, the EC50 [4, 10] was less than 1000 nM and the Cytotoxicity [5] was 10 or above μM.
For 3-aminotriamantane [MDT-48], the “anti-viral activity under the conditions tested” value (“anti-viral activity” for short) [6] was “did not exhibit anti-viral activity”.
In the case of 9-aminotriamantane [MDT-49], the “anti-viral activity” value [6] is reported as “did not exhibit anti-viral activity”.
For NC12CC3CC(CC(C3)C1)C2 [Amantadine, 1-aminoadamantane hydrochloride, reference compound], the EC50 ([1]; Influenza A virus, Vero, Table 4, controls, cutoff control values compiled through many experiments) was no less than 50000 nM, the EC50 ([2]; Influenza A virus, H1N1, Vero, Table 4, controls, cutoff control values compiled through many experiments) was no less than 10000 nM and the EC50 ([3]; Influenza A virus, H3N2, Vero, Table 4, controls, cutoff control values compiled through many experiments) was no more than 1000 nM. The EC50 ([4]; Influenza B virus, Vero, Table 4, controls, cutoff control values, determined over only 2 experiments) was no less than 20000 nM.
In the case of NC12CC3CC4C5CC(CC41)CC2C5C3 [MDT-1, 1-aminodiamantane], the “anti-viral activity” value [6] is reported as “did not exhibit anti-viral activity”.
With NC12CC3C4CC5CC3C(C1)C(C5)C4C2 [MDT-3, 4-aminodiamantane] the “EC50 Virus A/PR/8/34” value [1, 11] was “No Effic”, the “EC50 Virus A/WS/33” value [2, 11] was “No Effic” and the EC50 [3, 12] was less than 125 nM. The “EC50 Virus B/GL/1739/54” value [4, 10] was “No Effic” and the Cytotoxicity [5] was 10 or above μM.
In the case of OC12CC3CC4C5CC(CC41)CC2C5C3 [MDT-10, 1-hydroxydiamantane], the “anti-viral activity” value [6] is reported as “did not exhibit anti-viral activity”.
For OC12CC3C4CC5CC3C(C1)C(C5)C4C2 [MDT-11, 4-hydroxydiamantane], the “anti-viral activity” value [6] was “did not exhibit anti-viral activity”.
With OC12CC3CC4C1CC1CC2C(C3)C4(O)C1 [MDT-12, 1,6-dihydroxydiamantane] the “anti-viral activity” value [6] was “did not exhibit anti-viral activity”.
In the case of OC12CC3CC4C1CC1CC4C(O)(C3)C2C1 [MDT-13, 1,7-dihydroxydiamantane], the “anti-viral activity” value [6] is reported as “did not exhibit anti-viral activity”.
For OC12CC3C4CC5(O)CC3C(C1)C(C5)C4C2 [MDT-14, 4,9-dihydroxydiamantane], the “anti-viral activity” value [6] was “did not exhibit anti-viral activity”.
With OC12CC3C4CC5C6CC7(O)CC5C(C4C1)C(C2)(C7)C36 [MDT-15, 9,15-dihydroxytriamantane] the “anti-viral activity” value [6] was “did not exhibit anti-viral activity”.
CC12CC3(N)CC4C5CC(CC41)CC2C5C3 [MDT-22, 2-methyl-4-aminodiamantane] was tested, and the “anti-viral activity” value [6] was “did not exhibit anti-viral activity”.
For CC12CC3CC4C1CC1(N)CC2C(C3)C4(C)C1 [MDT-23, 1,6-dimethyl-4-aminodiamantane], the “anti-viral activity” value [6] was “did not exhibit anti-viral activity”.
For CC12CC3CC4C5CC(N)(CC41)CC2C5C3 [MDT-24, 1-methyl-4-aminodiamantane], the “EC50 Virus A/PR/8/34” value [1, 11] was “No Effic”, the “EC50 Virus A/WS/33” value [2, 11] was “No Effic” and the EC50 [3, 12] was 70 nM. The “EC50 Virus B/GL/1739/54” value [4, 10] was “No Effic” and the Cytotoxicity [5] was “No Tox”.
For O=NC12CC3CC4C5CC(CC41)CC2C5C3 [MDT-26, 1-nitrosodiamantane], the EC50 [1, 7] was 140 nM, the EC50 [2, 8] was 800 nM and the “EC50 Virus A/HK/8/68” value [3, 9] was “No Effic”. The “EC50 Virus B/GL/1739/54” value [4, 10] was “No Effic” and the Cytotoxicity [5] was “No Tox”.
O=NC12CC3C4CC5CC3C(C1)C(C5)C4C2 [MDT-27, 4-nitrosodiamantane] was tested, and the EC50 [1, 7] was 20 nM, the EC50 [2, 8] was 360 nM and the “EC50 Virus A/HK/8/68” value [3, 9] was “No Effic”. For the same molecule, the “EC50 Virus B/GL/1739/54” value [4, 10] was “No Effic” and the Cytotoxicity [5] was “No Tox”.
In the case of CC12CC3(N)CC4C5CC(N)(CC41)CC2C5C3 [MDT-28, 1-methyl-4,9-diaminodiamantane], the “anti-viral activity” value [6] is reported as “did not exhibit anti-viral activity”.
CC12CC3CC4C1CC1(N)CC2C(C3)C4(N)C1 [MDT-29, 1-methyl-4,6-diaminodiamantane] was tested, and the “anti-viral activity” value [6] was “did not exhibit anti-viral activity”.
For CC12CC3CC4C5CC(CC41)CC2(N)C5C3 (centres unmarked) [MDT-30, 1-amino-12-methyldiamantane], the “anti-viral activity” value [6] was “did not exhibit anti-viral activity”.
For CC12CC3CC4C1CC1(N)CC2C(C3)C4(C)C1 [MDT-33, 1,6-dimethyl-4-aminodiamantane], the “anti-viral activity” value [6] was “did not exhibit anti-viral activity”.
OC12C3CC4CC5C3CC3C6CC(CC31)CC2(C4)C56 [MDT-40, 2-hydroxytriamantane] was tested, and the EC50 [1, 7] was 1900 nM, the EC50 [2, 8] was 24900 nM and the “EC50 Virus A/HK/8/68” value [3, 9] was “No Effic”. The “EC50 Virus B/GL/1739/54” value [4, 10] was “No Effic” and the Cytotoxicity [5] was “No Tox”.
OC12CC3CC4C1CC1C5CC6CC1C2C(C6)(C3)C54 (centres unmarked) [MDT-41, 3-hydroxytriamantane] was tested, and the EC50 [1, 13] was 610 nM, the EC50 [2, 13] was 5500 nM and the “EC50 Virus A/HK/8/68” value [3, 9] was “No Effic”. The “EC50 Virus B/GL/1739/54” value [4, 10] was “No Effic” and the Cytotoxicity [5] was “No Tox”.
In the case of OC12CC3C4CC5C6CC7CC5C(C4C1)C(C7)(C2)C63 [MDT-42, 9-hydroxytriamantane], the EC50 [1, 13] is reported as 80 nM, the EC50 [2, 13] is reported as 2500 nM and the “EC50 Virus A/HK/8/68” value [3, 9] is reported as “No Effic”. The “EC50 Virus B/GL/1739/54” value [4, 10] was “No Effic” and the Cytotoxicity [5] was “No Tox”.
For CC12CC3CC4C1CC1CC2C(N)(C3)C4(C)C1 (centres unmarked) [MDT-43, 1,6-dimethyl-2-aminodiamantane], the EC50 [1, 7] was 60 nM, the EC50 [2, 8] was 820 nM and the “EC50 Virus A/HK/8/68” value [3, 9] was “No Effic”. For the same molecule, the “EC50 Virus B/GL/1739/54” value [4, 10] was “No Effic” and the Cytotoxicity [5] was 10 or above μM.
In the case of CC12CC3CC4C1CC1CC2C(O)(C3)C4(C)C1 (centres unmarked) [MDT-44, 1,6-dimethyl-2-hydroxydiamantane], the EC50 [1, 7] is reported as 50 nM, the EC50 [2, 8] is reported as 610 nM and the “EC50 Virus A/HK/8/68” value [3, 9] is reported as “No Effic”. For the same molecule, the “EC50 Virus B/GL/1739/54” value [4, 10] was “No Effic” and the Cytotoxicity [5] was “No Tox”.
For CC12CC3CC4C1CC1(O)CC2C(C3)C4(C)C1 [MDT-45, 1,6-dimethyl-4-hydroxydiamantane], the EC50 [1, 7] was 20 nM, the EC50 [2, 8] was 300 nM and the “EC50 Virus A/HK/8/68” value [3, 9] was “No Effic”. The “EC50 Virus B/GL/1739/54” value [4, 10] was “No Effic” and the Cytotoxicity [5] was “No Tox”.
CC12CC3C4CC5(C)CC3C(C1)C(N)(C5)C4C2 [MDT-51, 4,9-dimethyl-1-aminodiamantane] was tested, and the “anti-viral activity” value [6] was “did not exhibit anti-viral activity”.
For CC12CC3C4CC5(C)CC(C(C1)C3(N)C5)C4(N)C2 [MDT-53, 4,9-dimethyl-1,6-diaminodiamantane], the “anti-viral activity” value [6] was “did not exhibit anti-viral activity”.
NCC12CC3CC4C5CC(CC41)CC2C5C3 [MDT-56, 1-diamantanemethylamine] was tested, and the “anti-viral activity” value [6] was “did not exhibit anti-viral activity”.
In the case of O=C1C2CC3C4CC5CC3C1C(C5)C4C2 [MDT-59, 3-diamantanone], the “anti-viral activity” value [6] is reported as “did not exhibit anti-viral activity”.
With CC12CC3C4CC5CC3C(C1)C(C5)C4C2 [MDT-60, 4-methyldiamantane] the “anti-viral activity” value [6] was “did not exhibit anti-viral activity”.
In the case of CC12CC3C4CC5(C)CC3C(C1)C(CN)(C5)C4C2 [MDT-63, 4,9-dimethyl-1-diamantanemethyleneamine], the “anti-viral activity” value [6] is reported as “did not exhibit anti-viral activity”.
In the case of CC12CC3CC4C1CC1(CN)CC2C(C3)C4(C)C1 [MDT-65, 1,6-dimethyl-4-diamantanemethyleneamine], the “anti-viral activity” value [6] is reported as “did not exhibit anti-viral activity”.
For CC(N)C12CC3(C)CC4C5CC(C)(CC41)CC2C5C3 (centres unmarked) [MDT-67, 4,9-dimethyl-1-diamantane-1′-methyl-methyleneamine], the “anti-viral activity” value [6] was “did not exhibit anti-viral activity”.
CC(N)C12CC3C4CC5CC(C(C1)C3(C)C5)C4(C)C2 (centres unmarked) [MDT-68, 1,6-dimethyl-4-diamantane-4′-methyl-methyleneamine] was tested, and the “anti-viral activity” value [6] was “did not exhibit anti-viral activity”.
